Reference: PubChem BioAssay AID248 (DTP/NCI, 2004)
Values joined by “and” are separate entries in the source; they are usually repeats but may differ in a detail not shown here. Equal entries are not always repeated. Toxic doses and inconclusive results are not listed. Cut-off read from the data, not from the text of the source: active = T/C of 150% or more; inactive = T/C below 125%.

System: L1210 leukemia ip in BDF1 mice, survival T/C
Assay: NCI In Vivo Anticancer Drug Screen. Data for tumor model L1210 Leukemia (intraperitoneal) in B6D2F1 (BDF1) mice
Conditions: endpoint: mean survival time, higher = longer survival
Summary of the method: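 Transplanted-tumor mice were given test agent; controls received vehicle only. Survival readings from the two groups were divided (treated over control).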

[1] = dose: 50.0 mg/kg/injection, schedule: Q01DX009 (ip), vehicle: Klucel (hydroxypropylcellulose) (HPC)
[2] = dose: 100.0 mg/kg/injection, schedule: Q01DX009 (ip), vehicle: Klucel (hydroxypropylcellulose) (HPC)
[3] = dose: 100.0 mg/kg/injection, schedule: Q04DX003 (ip), vehicle: Klucel (hydroxypropylcellulose) (HPC)
[4] = dose: 200.0 mg/kg/injection, schedule: Q01DX009 (ip), vehicle: Klucel (hydroxypropylcellulose) (HPC)
[5] = dose: 200.0 mg/kg/injection, schedule: Q04DX003 (ip), vehicle: Klucel (hydroxypropylcellulose) (HPC)
[6] = dose: 100.0 mg/kg/injection, schedule: Q04DX003 (ip), vehicle: saline with Tween-80
[7] = dose: 200.0 mg/kg/injection, schedule: Q04DX003 (ip), vehicle: saline with Tween-80
[8] = dose: 25.0 mg/kg/injection, schedule: Q01DX009 (ip), vehicle: saline
[9] = dose: 25.0 mg/kg/injection, schedule: Q04DX003 (ip), vehicle: saline
[10] = dose: 50.0 mg/kg/injection, schedule: Q01DX009 (ip), vehicle: saline
[11] = dose: 100.0 mg/kg/injection, schedule: Q01DX009 (ip), vehicle: saline with Tween-80
[12] = dose: 200.0 mg/kg/injection, schedule: Q01DX009 (ip), vehicle: saline with Tween-80
[13] = dose: 400.0 mg/kg/injection, schedule: Q01DX009 (ip), vehicle: saline with Tween-80
[14] = dose: 100.0 mg/kg/injection, schedule: Q01DX009 (ip), vehicle: saline
[15] = dose: 200.0 mg/kg/injection, schedule: Q01DX009 (ip), vehicle: saline
[16] = dose: 400.0 mg/kg/injection, schedule: Q01DX009 (ip), vehicle: saline
[17] = dose: 100.0 mg/kg/injection, schedule: Q04DX003 (ip), vehicle: saline

Measured: T/C

Cc1cc(=O)[nH]c(N/N=C/C(C)C)n1
inactive: [1] 95 % of control | [2] 95 % of control | [3] 95 % of control | [4] 93 % of control | [5] 89 % of control

Cc1ccc(N=Nc2sc(N)nc2C)cc1
inactive: dose: 75.0 mg/kg/injection, schedule: Q01DX001 (ip), vehicle: saline 97 % of control | dose: 150.0 mg/kg/injection, schedule: Q01DX001 (ip), vehicle: saline 102 % of control

S=C1SCN(c2ccccc2)CN1c1ccccc1
inactive: [6] 88 % of control | [7] 88 % of control

CCCCNC(=O)OC
inactive: [1] 94 % of control | [2] 97 % of control | [3] 98 % of control | [4] 102 % of control | [5] 91 % of control

CCC1CC(C)C(=O)NC1=O (centres undefined)
inactive: dose: 12.5 mg/kg/injection, schedule: Q01DX009 (ip), vehicle: saline 95 % of control | dose: 12.5 mg/kg/injection, schedule: Q04DX003 (ip), vehicle: saline 91 % of control | [8] 100 % of control | [9] 110 % of control | [10] 95 % of control | dose: 50.0 mg/kg/injection, schedule: Q04DX003 (ip), vehicle: saline 96 % of control

COC(=O)C1(C)CCCC2(C)C1CCC13C=C(C(C)C)C(CC1C(=O)O)CC23 (centres undefined)
inactive: [11] 95 % of control | [12] 93 % of control | [13] 87 % of control

Nc1cncc2ncc(-c3ccc(Cl)c(Cl)c3)nc12
inactive: dose: 50.0 mg/kg/injection, schedule: Q01DX001 (ip), vehicle: other 98 % of control | dose: 100.0 mg/kg/injection, schedule: Q01DX001 (ip), vehicle: other 98 % of control | dose: 200.0 mg/kg/injection, schedule: Q01DX001 (ip), vehicle: other 98 % of control | dose: 400.0 mg/kg/injection, schedule: Q01DX001 (ip), vehicle: other 100 % of control

O=c1ccc2c(COc3ccc(Cl)cc3Cl)c3ccc(O)cc3oc-2c1
inactive: [3] 99 % of control | [5] 99 % of control

CC1CN(c2ccc([N+](=O)[O-])cc2)C(C)CN1N=O (centres undefined)
inactive: [8] 106 % of control | [10] 104 % of control | [14] 98 % of control | [15] 97 % of control | [16] 95 % of control

Cc1c2cnccc2c(C)c2c1c1ccccc1n2CC1CO1 (centres undefined)
inactive: dose: 0.78 mg/kg/injection, schedule: Q01DX009 (ip), vehicle: Klucel (hydroxypropylcellulose) (HPC) 90 % of control | dose: 1.56 mg/kg/injection, schedule: Q01DX009 (ip), vehicle: Klucel (hydroxypropylcellulose) (HPC) 97 % of control | dose: 1.56 mg/kg/injection, schedule: Q01DX009 (ip), vehicle: saline with Tween-80 113 % of control | dose: 3.12 mg/kg/injection, schedule: Q01DX009 (ip), vehicle: Klucel (hydroxypropylcellulose) (HPC) 100 % of control | dose: 3.13 mg/kg/injection, schedule: Q01DX009 (ip), vehicle: saline with Tween-80 110 % of control | dose: 4.12 mg/kg/injection, schedule: Q01DX009 (ip), vehicle: Klucel (hydroxypropylcellulose) (HPC) 120 % of control | dose: 6.25 mg/kg/injection, schedule: Q01DX009 (ip), vehicle: Klucel (hydroxypropylcellulose) (HPC) 94 % of control and 122 % of control | dose: 6.25 mg/kg/injection, schedule: Q01DX009 (ip), vehicle: saline with Tween-80 113 % of control | dose: 6.25 mg/kg/injection, schedule: Q04DX003 (ip), vehicle: saline 110 % of control | dose: 12.5 mg/kg/injection, schedule: Q01DX009 (ip), vehicle: Klucel (hydroxypropylcellulose) (HPC) 113 % of control | dose: 12.5 mg/kg/injection, schedule: Q01DX009 (ip), vehicle: saline with Tween-80 120 % of control | dose: 25.0 mg/kg/injection, schedule: Q01DX009 (ip), vehicle: Klucel (hydroxypropylcellulose) (HPC) 119 % of control and 86 % of control | [9] 123 % of control | dose: 65.0 mg/kg/injection, schedule: Q04DX003 (ip), vehicle: saline 108 % of control and 117 % of control | [17] 104 % of control and 114 % of control | dose: 150.0 mg/kg/injection, schedule: Q04DX003 (ip), vehicle: saline 108 % of control

O=C(Nc1cccc(Cl)c1)Oc1ccc2ccccc2c1
inactive: [14] 90 % of control | dose: 100.0 mg/kg/injection, schedule: Q04DX004 (ip), vehicle: saline 104 % of control | [15] 101 % of control | dose: 200.0 mg/kg/injection, schedule: Q04DX004 (ip), vehicle: saline 90 % of control | [16] 101 % of control | dose: 400.0 mg/kg/injection, schedule: Q04DX004 (ip), vehicle: saline 98 % of control

CCOP(=O)(OCC)C1CC(C(C)C)CCC1C (centres undefined)
inactive: dose: 75.0 mg/kg/injection, schedule: Q01DX001 (ip), vehicle: other 93 % of control | dose: 150.0 mg/kg/injection, schedule: Q01DX001 (ip), vehicle: other 98 % of control | dose: 300.0 mg/kg/injection, schedule: Q01DX001 (ip), vehicle: other 110 % of control

Oc1ccc2ccc(O)c(C(NC(O)c3ccccc3)c3ccccc3)c2c1C(NC(O)c1ccccc1)c1ccccc1 (centres undefined)
inactive: dose: 10.0 mg/kg/injection, schedule: Q01DX001 (ip), vehicle: saline 96 % of control | dose: 20.0 mg/kg/injection, schedule: Q01DX001 (ip), vehicle: saline 96 % of control | dose: 40.0 mg/kg/injection, schedule: Q01DX001 (ip), vehicle: saline 93 % of control

c1ccc(CC(Cc2ccccc2)CN2CCCC2)cc1
inactive: [14] 94 % of control | [17] 95 % of control | [15] 102 % of control | dose: 200.0 mg/kg/injection, schedule: Q04DX003 (ip), vehicle: saline 94 % of control | [16] 103 % of control | dose: 400.0 mg/kg/injection, schedule: Q04DX003 (ip), vehicle: saline 89 % of control

CCc1nc2ccc(N=Cc3ccc(N(CCCl)CCCl)cc3C)cc2[nH]1
inactive: [3] 101 % of control | [5] 98 % of control | dose: 400.0 mg/kg/injection, schedule: Q04DX003 (ip), vehicle: Klucel (hydroxypropylcellulose) (HPC) 101 % of control

O=C(CCl)NC(CO)C(=O)O (centres undefined)
inactive: [11] 89 % of control | [6] 103 % of control | [12] 87 % of control | [7] 94 % of control

Cc1ccc(C#N)cc1
inactive: [11] 98 % of control | [6] 94 % of control | [12] 93 % of control | [7] 92 % of control | [13] 98 % of control | dose: 400.0 mg/kg/injection, schedule: Q04DX003 (ip), vehicle: saline with Tween-80 96 % of control

Nc1c(Br)c(Cl)cc2c1-c1ccc(Cl)cc1C2S (centres undefined)
inactive: dose: 100.0 mg/kg/injection, schedule: Q01DX001 (ip), vehicle: carboxymethylcellulose (CMC) 104 % of control | dose: 200.0 mg/kg/injection, schedule: Q01DX001 (ip), vehicle: carboxymethylcellulose (CMC) 95 % of control | dose: 400.0 mg/kg/injection, schedule: Q01DX001 (ip), vehicle: carboxymethylcellulose (CMC) 90 % of control
